This is an account of results in patent US20140360727A1, “REMEDIATION OF ASPHALTENE-INDUCED PLUGGING OF AN OIL-BEARING FORMATION” (SHELL OIL COMPANY, priority 2013, published 2014).

Holding throughout (format): physicochemical
The nature of series [1]: SARA analysis of bitumen samples extracted from oil sands by each solvent. As for the experimental part: The bitumen samples extracted at 30° C. from each oil sands sample were evaluated by SARA analysis to determine the saturates, aromatics, resins, and asphaltenes composition of the bitumen samples extracted by each solvent.
Series [2] can be described thus: Extraction of mined oil sands with solvents (cyclic contact and drain). Conditions: 10 C and 30 C; FIGS. 4 and 5 and Table 1. As for the experimental part:
Each oil sands sample was weighed and placed in a cellulose extraction thimble that was placed on a porous polyethylene support disk in a jacketed glass cylinder with a drip rate control valve. Each oil sands sample was then extracted with a selected solvent at a selected temperature (10° C. or 30° C.) in a cyclic contact and drain experiment, where the contact time ranged from 15 to 60 minutes. Fresh contacting solvent was applied and the cyclic extraction repeated until the fluid drained from the apparatus became pale brown in color.
The extracted fluids were stripped of solvent using a rotary evaporator and thereafter vacuum dried to remove residual solvent. […] The residual solids and extraction thimble were air dried, weighed, and then vacuum dried.

A short description of series [3]: Time required to entirely dissolve naturally occurring tar mat material. Conditions: DMS versus A150, both experiments. The method, then: Two experiments were conducted on a naturally occurring tar mat material recovered from an oil-bearing formation to compare the rate of dissolution of the tar mat material using dimethyl sulfide and A150, a commercially available solvent comprised of a mixture of aromatic hydrocarbons that is commonly used to dissolve tar mats. A naturally occurring tar mat material recovered from an oil-bearing formation at a depth of 4690 meters and at a formation temperature of 50° C. was utilized as the tar mat material for the comparison.
In the first experiment, two samples of DMS solvent and two samples of A150 solvent were individually mixed with the tar mat material at ambient temperature and pressure, where the volume (ml) to weight (g) ratio of each solvent sample to the tar mat material was approximately 100:1. The length of time required to entirely dissolve the tar mat material was measured and recorded.
In the second experiment, four samples of DMS solvent and four samples of A150 solvent were individually mixed with the tar mat material at ambient temperature and pressure, where the volume (ml) to weight (g) ratio of each solvent sample to the tar mat material was approximately 10:1. The length of time required to entirely dissolve the tar mat material was measured and recorded.

Molecules are shown by their SMILES. Where two headings read alike, the source gives them in different places.

In the case of `S=C=S` [Carbon Disulfide, carbon disulfide], in series [1] (bitumen extracted at 30 C), the “Aromatics, oil composition of extracted bitumen” value (“Aromatics, oil composition” below) came out at 41.89 Normalized Weight Percent; the “Asphaltenes, oil composition of extracted bitumen” value (“Asphaltenes, oil composition” below) was 13.85 Normalized Weight Percent; the “Resins, oil composition of extracted bitumen” value (from here on “Resins, oil composition”) was determined as 25.49 Normalized Weight Percent; the “Saturates, oil composition of extracted bitumen” value (from here on “Saturates, oil composition”) is 18.77 Normalized Weight Percent.

With `ClC(Cl)Cl` [Chloroform, chloroform], in series [1], the “Aromatics, oil composition” value stood at 43.56 Normalized Weight Percent; the “Asphaltenes, oil composition” value amounted to 14.86 Normalized Weight Percent; the “Resins, oil composition” value stood at 25.94 Normalized Weight Percent. In addition, in series [1] (bitumen extracted at 30 C), the “Saturates, oil composition” value is recorded as 15.64 Normalized Weight Percent.

Take `CSC` [Dimethyl Sulfide, dimethyl sulfide]: the “Recovery of bitumen from oil sand material versus best known fluids” value in series [2] is “comparable”. Moreover, in series [1] (bitumen extracted at 30 C), the “Aromatics, oil composition” value turned out to be 47.07 Normalized Weight Percent; the “Asphaltenes, oil composition” value worked out at 13.19 Normalized Weight Percent; the “Effectiveness for extraction of asphaltenes from oil sands (SARA)” value is “excellent miscibility properties”; the “Resins, oil composition” value turned out to be 24.25 Normalized Weight Percent. Besides, the “Saturates, oil composition” value in series [1] (bitumen extracted at 30 C) stood at 15.49 Normalized Weight Percent. In series [3], the “Rate of tar mat dissolution relative to A150” value was “not less than 1.4 times”.

Consider `C1CCOC1` [Tetrahydrofuran, tetrahydrofuran], for which, in series [1] (bitumen extracted at 30 C), the “Aromatics, oil composition” value was 45.24 Normalized Weight Percent; the “Asphaltenes, oil composition” value is listed as 14.27 Normalized Weight Percent; the “Resins, oil composition” value is on record as 24.38 Normalized Weight Percent; the “Saturates, oil composition” value stood at 16.11 Normalized Weight Percent.

On to `Cc1ccccc1C` [o-Xylene, o-xylene], for which, in series [1] (bitumen extracted at 30 C), the “Aromatics, oil composition” value amounted to 46.39 Normalized Weight Percent; the “Asphaltenes, oil composition” value is recorded as 13.96 Normalized Weight Percent; the “Resins, oil composition” value was 22.28 Normalized Weight Percent; the “Saturates, oil composition” value came to 17.37 Normalized Weight Percent.
